# Test results taken from paper PMC6749524, “Identification of New Antifungal Agents Targeting Chitin Synthesis by a Chemical-Genetic Method” (Molecules, 2019).
# How the values were obtained:
# [1] = tested on: Mycobacterium smegmatis; test: Growth inhibition of bacteria; format: cell-based; details: at 100 μg/mL
# [2] = tested on: WT S. cerevisiae; test: Checkerboard assay, synergy with caspofungin; format: cell-based; details: S. cerevisiae, MIC80; for MIC of Caspofungin Combination: MIC of caspofungin in combination with the named compound; for MIC Combination: MIC of the compound in combination with caspofungin
# Description: (§1) Fresh cell cultures of WT S. cerevisiae and C. albicans ATCC10231 (OD600 = 0.8) were diluted to 10^4 CFU/mL in YPD medium. The in vitro synergistic and antagonistic effects of compounds were determined using checkerboard assay. MIC endpoints were defined as the lowest concentration of drugs, causing 80% decrease in viability compared to the drug-free control (MIC80). The calculation and interpretation of the fractional inhibitory concentration index (FICI) were carried out by referring to the document standards. FICI = (MIC of drug A in combination) / (MIC of drug A alone) + (MIC of drug B in combination) / (MIC of drug B alone). FIC ≤0.5 was considered as a synergistic effect, and >2 was considered as antagonism.
# [3] = tested on: C. albicans ATCC10231; test: Checkerboard assay, synergy with caspofungin; format: cell-based; details: Candida albicans; for MIC of Caspofungin Combination: MIC of caspofungin in combination with the named compound; for MIC Combination: MIC of the compound in combination with caspofungin
# Description: as §1
# [4] = tested on: Hela cells; test: Cytotoxicity assay (MTT); format: cell-based, human; details: concentration as high as 100 μg/mL, 48 hours
# Description: (§2) Human embryonic kidney 293 cells and Hela cells were seeded in triplicate in 96-well plates and grown to log-phase in DMEM medium with 10% FBS. Then, the medium was removed, and the cells were incubated with compounds at various concentrations ranging from 3.125 to 100 μg/mL in DMEM medium without FBS. After incubation for 48 hours, MTT reagent was added for further incubation for 4 hours. After we added 50 μL of DMSO, the absorbance was measured at 570 nm. The IC50 values were calculated based on a concentration-response curve.
# [5] = tested on: human embryonic kidney 293 cells; test: Cytotoxicity assay (MTT); format: cell-based; details: concentration as high as 100 μg/mL, 48 hours
# Description: as §2
# [6] = tested on: C. albicans; test: Growth curve assay (OD600 over time); format: cell-based, Candida albicans; details: 50 μg/mL and 100 μg/mL, p < 0.05
# Description: Fresh cell cultures of WT yeast S. cerevisiae and Candida albicans ATCC10231 (OD600 = 0.8) were diluted in YPD medium (OD600 = 0.05). Then, IMB-D10 and IMB-F4 were added at concentrations ranging from 12.5 to 100 μg/mL. The cells were collected at different time points, and OD600 was measured with Multi-label Reader. Three experiments were performed independently, and the mean ± SD was calculated.
# [7] = target: Chs2 (Saccharomyces cerevisiae, UniProt P14180); test: Chitin synthase activity assay (WGA-coated plate); format: biochemical, S. cerevisiae; details: membrane protein from WT yeast
# Description: The inhibitory effect of compounds IMB-D10 and IMB-F4, on the activity of chitin synthases 1, 2, and 3, was measured by the procedure, described previously. In brief, WT yeast cells were grown in YPD medium to OD600 1–2. The cells were sedimented at 1500 g for 15 min at 4 °C and washed once with water. Then, the cells were resuspended in cold 100 mM Tris-HCl (pH 7.5) buffer containing protease inhibitors, and broken by 10 cycles of vortexing with acid-washed glass beads (1 min each). The broken cells were centrifuged for 15 min at 1500g to eliminate cell wall and debris. One volume of supernatant was placed on 2 volumes of 10% w/w sucrose in 100 mM Tris-HCl pH 7.5 and centrifuged at 55,000 g for 2 hours. The pellet was resuspended in 50 mM Tris-HCl pH 7 and used as membrane protein of Chs3. For Chs1 and Chs2, the membrane protein was pretreated with 80 μg/mL trypsin for 30 min at 30 °C.
# To assess the enzyme activity of Chs1, the assay mixture contained 15 μg membrane protein, 5 mM MgCl2, 32 mM Tris-maleate (pH6.5), 0.2% digitonin, 40 mM N-acetyl-glucosamine (GlcNAc), and 4 mM UDP-GlcNAc. For Chs2, the mixture contained 15 μg pretreated membrane protein, 1.6 mM CoCl2, 32 mM Tris-HCl (pH 8), 40 mM GlcNAc, and 4 mM UDP-GlcNAc. For Chs3, the mixture contained pretreated membrane protein 15 μg, 1.6 mM CoCl2, 5 mM NiCl2, 32 mM Tris-HCl (pH 8), 40 mM GlcNAc, and 4 mM UDP-GlcNAc. Different concentrations of IMB-D10 and IMB-F4 were added to the mixture, and the reaction without UDP-GlcNAc was used to measure background absorbance. The 96-well plate coated with 50 μg/mL wheat germ agglutinin (WGA) was washed three times with water, and the reaction mixture was added into the wells and incubated at 30 °C for 60 min. The reaction was stopped by 50 mM EDTA, and the plate was emptied and washed with a large volume of water, followed by the addition of 200 μL 0.5 μg/mL WGA-HRP and incubation for 5 min at room temperature. The plate was washed 5 times with running distilled water. Then, the Tetramethylbenzidine (TMB) reagent was added, and the optical density at 600 nm (OD600) was immediately detected with Multilabel Reader (Envision, PE, Pontyclun, UK). All reactions were performed in triplicate.
# [8] = tested on: CHS1, CHS2, and CHS3 genes; test: qRT-PCR gene expression; format: cell-based, S. cerevisiae; details: 25 μg/mL, 16 hours
# Description: WT yeast cells were grown to 10^5 CFU/mL in YPD medium and then treated with 25 μg/mL compounds or 0.25% DMSO for 16 hours at 30 °C. Then, the cells were collected by centrifugation at 1500 g for 5 min and washed twice with water. Total RNA was prepared using the Yeast RNA kit (OMEGA R6870-01, Norcross, GA, USA) and treated with DNase Ⅰ (TransGen GD201-01, Beijing, China) to remove genomic DNA. The resulting RNA was reverse-transcribed with the cDNA synthesis super-mix kit (TransGen AT311, Beijing, China). qRT-PCR was performed using Fast Universal SYBR Green Master (Rox, Roche, Mannheim, Gemany) and gene-specific primers (Table S1). The DNA level was measured using an Real-Time Quantitative Thermal Cycler (FTC-3000, Funglyn Biotech Inc, Toronto, Canada). The expression levels were correlated with the copy numbers used to amplify the gene to reach the threshold, then represented as the mean ± SEM relative to the cells treated with DMSO. One-way ANOVAs were performed to identify deviation from the mean.
# Sequence of Chs2 (P14180 whole entry): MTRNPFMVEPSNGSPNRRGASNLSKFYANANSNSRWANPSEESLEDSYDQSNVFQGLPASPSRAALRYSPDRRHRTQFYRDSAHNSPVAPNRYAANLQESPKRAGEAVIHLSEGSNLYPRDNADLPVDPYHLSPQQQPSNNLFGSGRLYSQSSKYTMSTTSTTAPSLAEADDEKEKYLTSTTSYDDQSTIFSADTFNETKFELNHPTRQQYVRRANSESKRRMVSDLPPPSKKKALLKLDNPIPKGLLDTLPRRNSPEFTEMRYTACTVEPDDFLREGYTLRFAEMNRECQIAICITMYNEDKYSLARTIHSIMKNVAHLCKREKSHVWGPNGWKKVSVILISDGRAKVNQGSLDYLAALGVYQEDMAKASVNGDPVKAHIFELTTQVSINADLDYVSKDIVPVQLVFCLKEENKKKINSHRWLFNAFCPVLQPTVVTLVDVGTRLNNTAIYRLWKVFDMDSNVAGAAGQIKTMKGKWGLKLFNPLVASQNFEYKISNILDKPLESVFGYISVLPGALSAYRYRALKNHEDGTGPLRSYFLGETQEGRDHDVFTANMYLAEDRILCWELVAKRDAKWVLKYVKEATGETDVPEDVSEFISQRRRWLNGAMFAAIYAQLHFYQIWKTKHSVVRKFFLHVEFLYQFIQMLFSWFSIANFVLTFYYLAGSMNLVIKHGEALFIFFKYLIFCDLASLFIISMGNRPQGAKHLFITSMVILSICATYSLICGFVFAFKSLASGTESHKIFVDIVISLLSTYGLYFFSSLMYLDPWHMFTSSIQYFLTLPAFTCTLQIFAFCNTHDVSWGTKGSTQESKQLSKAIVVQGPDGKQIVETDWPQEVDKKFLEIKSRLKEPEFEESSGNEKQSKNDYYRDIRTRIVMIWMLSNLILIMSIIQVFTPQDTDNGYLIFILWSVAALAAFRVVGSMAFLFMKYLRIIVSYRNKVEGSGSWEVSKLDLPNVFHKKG
Compound,growth inhibition [1],MIC of Caspofungin Combination [2] [mg/L],MIC Combination [2] [mg/L],"MIC ([2]; Saccharomyces cerevisiae, compound alone, read-out: MIC Alone) [mg/L]","MIC ([3]; ATCC10231, compound alone, MIC80, read-out: MIC Alone) [mg/L]",MIC of Caspofungin Combination ([3]; MIC80) [mg/L],MIC Combination ([3]; MIC80) [mg/L],"FICI ([3]; fractional inhibitory concentration index with caspofungin, ≤0.5 synergistic)",growth inhibition (toxicity) [4],growth inhibition (toxicity) [5],growth of C. albicans over time [6],IC50 Chs2 [7] [mg/L],MIC Alone ([2]; compound alone) [mg/L],"MIC Alone ([3]; compound alone, MIC80) [mg/L]","expression levels of CHS1, CHS2, and CHS3 genes [8]"
"COc1cc(OC)cc(C(=O)N(CCn2ccnc2)c2nc3ccc(OC)cc3s2)c1 [IMB-F4, N-(2-(1H-imidazol-1-yl)ethyl)-3,5-dimethoxy-N-(6-methoxybenzo[d]thiazol-2-yl)benzamide]",did not inhibit the growth,0.0075,25,> 100,> 100,0.003125,12.5,<0.5,No growth inhibition,No growth inhibition,growth inhibition was observed after incubation for 6 hours,–,–,–,–
N-(2-(diethylamino) ethyl)-N-(7-hydroxy-4-methoxybenzo[d]thiazol -2-yl)-2-oxo-2H-chromene-3-carboxamide [IMB-D10],did not inhibit the growth,0.0075,12.5,–,–,0.00625,12.5,–,–,–,reduced after 4 hours incubation,3.516 ± 1.35,50,100,did not decrease significantly
